{"source": "patent US20260028404A1", "about": "(UNIVERSITY OF KANSAS, priority 2022, published 2026)", "key": {"[1]": {"tested_on": "28 immune related proteins", "experiment": "GeoMx digital spatial profiling, biopsy vs resected treated tumor", "format": "in vivo, human", "description": "GeoMx DSP analysis: Digital spatial profiling of pre-and post-treatment formalin-fixed, paraffin embedded (FFPE) tumor tissue was performed using the GeoMx DSP platform (NanoString Technologies) to measure levels of 28 protein markers associated with immune oncology. Specifically, the immune cell profiling core protein module and IO drug target protein module were used for this analysis following manufacturer's protocol for staining, hybridization, collection, detection (nCounter based-counting), and data normalization. Briefly, this entailed an initial pathologist review of hematoxylin and eosin-stained sections by a pathologist at KUMC to verify presence of tumor cells within the FFPE block. Next, a 5 μm-think unstained FFPE slide was subjected to a cocktail of primary antibodies conjugated with unique DNA-oligonucleotide moieties attached with a light sensitive photocleavable linker. Within this cocktail were also anti-pan-cytokeratin (included with GeoMx assay and used for the basal cell carcinoma and squamous cell carcinoma samples) or anti-MART-1 (Novus Biologicals, catalog #NBP2-46603AF647 used for targeting epithelium in melanoma samples), CD45 (for targeting immune cells) and Syto-13 (used as a nuclear stain). These fluorescently labeled antibodies were used for imaging and identifying the regions of interest (ROIs) followed by segmentation into tumor cells and immune cells for independent collection from each ROI into individual wells of a 96-well plate followed by digital quantification using the NanoString nCounter platform. The GeoMx DSP Analysis Suite version 2.4 was used to perform data QC, normalization, and statistical analysis following guidance by NanoString field scientists. For analysis of similar cell populations (i.e., expression levels only in epithelial cells or only in immune cells), the geometric mean of housekeeping proteins GAPDH, Histone H3, and S6 was used for normalization. When different cell populations were being analyzed (i.e., expression levels in epithelial versus immune cells), the geometric mean of the signal-to-noise ratio of negative control mouse and rabbit isotype IgG controls was used for background correction prior.\nThe GeoMx Digital Spatial Profiling (DSP) platform (NanoString) was used to profile 28 immune related proteins. This platform allows users to perform nondestructive interrogation of formalin-fixed paraffin embedded (FFPE) tissue (among other tissue types) for multiplexed spatial profiling of immunooncology-related proteins to assess tumor cells and their microenvironment. The GeoMx platform uses a cocktail of antibodies conjugated to photocleavable DNA-barcoded oligos to provide high multiplex capacity and the use of guided ultraviolet light exposure (by way of adjustable 1 million micromirrors) provides a high degree of flexibility in selection of regions of interest for study. DSP technology and the GeoMx platform have been extensively reviewed.\nUsing the GeoMx DSP platform, we performed in situ digital spatial profiling of tissue specimens collected from the COPAX trial patients before and after treatment to measure levels of 28 proteins (Immune cell profiling panel, and the IO drug target panel). After a pathologist review of H&E-stained tissue specimens to assess presence of tumor cells, GeoMx DSP analysis was performed on a serial unstained slide for each sample. Regions of interest (ROIs) which encompassed both tumor and immune cells were selected either by free-hand drawing using the polygon tool or using a standard circle. The ROIs were further segmented into tumor cells and immune cells based on the staining pattern of morphology markers (pan-cytokeratin and CD45 for the carcinomas and MARTI and CD45 for the melanomas). Following segmentation, the DNA bar codes corresponding to each target in the antibody cocktail were collected by the instrument. […]"}, "CT26wt tumors": {"tested_on": "CT26wt tumors", "experiment": "Example 6 syngeneic CT26wt model with anti-mPD-L1", "format": "in vivo, BALB/c mice", "conditions": "of 8 animals on Day 0", "description": "FIG. 14. […] Female BALB/c mice were implanted with CT26wt tumor cells into the mammary fat pad on Day 0 and were treated as depicted in the figure legends. […] The number of animals alive on Days 0 (implantation) and 45 (study termination), are shown for each group in parenthesis.\nEach experimental group contained eight female BALB/c mice after randomization. On Day 0, 0.5×10^6 CT26wt murine colon adenocarcinoma tumor cells in 100 μl PBS were implanted into the left mammary fat pad of each mouse.\nAfter animals had been randomized on Day 6, treatments were initiated on the same day. […] All groups were evaluated versus the Control, which were animals that had been treated with 25 μl/mouse Vehicle Control (4% mannitol) i.t. in combination with 10 mg/kg Isotype Control i.p.\nDuring the course of the study, individual animals were either euthanized prior to study end without performing a necropsy, after they had reached humane endpoint, or were found dead. On Day 45, the study was terminated and all remaining animals were euthanized without performing a necropsy."}, "[2]": {"tested_on": "differentially expressed genes", "experiment": "CT26 tumor RNA sequencing", "format": "in vivo, BALB/c mice", "conditions": "intratumoral GA treatment", "description": "RNA isolation: RNA was isolated from the tumor as previously described. 22.83Briefly, tumor pieces were stored in RNAlater solution at room temperature for at least one day and then at 4° C. until RNA isolation. Tumor pieces were removed from RNAlater solution and homogenized in 10 mL TRIzol reagent (38% phenol, 0.8 M guanidine thiocyanate, 0.4 M ammonium thiocyanate, 0.1 M sodium acetate, 5% glycerol). Homogenate was divided into 1 mL, 100 μl BCP (Molecular Research Center #BP 151, Cincinnati, OH) was added, shaken vigorously 15 seconds and centrifuged 12,000×g, 10 minutes, 4° C. […] RNA was quantified by Qubit™ using the RNA High Sensitivity Assay Kit (Invitrogen™ #Q32852, Thermo Fisher Scientific Corporation, Eugene, OR) and RNA quality was analyzed using the Agilent 2200 TapeStation (Waldbronn, Germany).\nRNA sequencing: The mRNA library preparation was performed with the NEBNext® Stranded mRNA library kit (New England Biolabs, Inc. #E7760, Ipswich, MA), tagged with a unique dual index sequence, and qPCR quantification of the library pool was performed before sequencing. Sequencing was performed on an Illumina NextSeq2000 P3 with single read 75 bp read lengths (KU Genome Sequencing Core). The reads were aligned with Mus musculus UCSC mm9 reference genome using RNA-Seq Alignment workflow (2.0.2, Illumina, San Diego, CA). […]"}}, "note": "“Also recorded” adds a separate entry of the source."}
{"substance": "Glatiramer acetate [GA]", "values": [{"measurement": "patients with CD56 upregulated", "setting": "[1]; Table B patients", "result": 2, "unit": "patients"}, {"measurement": "patients with PD-L1 upregulated", "setting": "[1]; Table B patients", "result": 3, "unit": "patients"}, {"measurement": "Gene expression (upregulated post-treatment)", "setting": "[1]; patient BCCa-Left Nasal Ala, 2 Copaxone injections", "result": "CD56, CD11c,"}, {"measurement": "Gene expression (upregulated post-treatment)", "setting": "[1]; patient BCCa-Right Post. Neck, 2 Copaxone injections", "result": "VISTA, GITR"}, {"measurement": "Gene expression (upregulated post-treatment)", "setting": "[1]; patient SCCa-Right Cheek, 1 Copaxone injection", "result": "CD45, CD3,; also recorded: OX401, GITR,"}, {"measurement": "immune marker expression after treatment (GeoMx, overall)", "setting": "[1]; patients, biopsy vs resected treated tumor, listed as Copaxone®", "result": "immunostimulatory effect at the intratumoral injection site; also recorded: Several patients exhibited upregulated expression of genes that encode targets for checkpoint inhibitor therapy; also recorded: upregulated markers of stimulatory immune activity; also recorded: Immune markers including hallmarks of T cell recruitment and activation were upregulated in tumors"}, {"measurement": "number of animals alive on Day 45 (study termination)", "setting": "CT26wt tumors", "result": 0}, {"measurement": "gene expression in the tumors", "setting": "[2]", "result": "little discernable effect on gene expression"}]}
